Reference: PubChem BioAssay (NCI)
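Test compounds were applied to cells in 96-well plates for 48 hours at 5 doses. GI50: concentration for 50% inhibition of growth. Definition used: TGI = concentration required for complete inhibition of growth.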

Key:
Assay in all cases: growth of human tumour cells (NCI), 48 h
[1] = tested on: HOP-92 NSCLC
[2] = tested on: MALME-3M melanoma
[3] = tested on: HCC-2998 colon
[4] = tested on: KM12 colon
[5] = tested on: CAKI-1 renal
[6] = tested on: LOX IMVI melanoma
[7] = tested on: DU-145 prostate
[8] = tested on: COLO 205 colon
[9] = tested on: SF-539 CNS
[10] = tested on: A549 NSCLC
[11] = tested on: HOP-62 NSCLC
[12] = tested on: SW-620 colon
[13] = tested on: A498 renal
[14] = tested on: IGROV1 ovarian
[15] = tested on: OVCAR-3 ovarian
[16] = tested on: UO-31 renal
[17] = tested on: UACC-62 melanoma
[18] = tested on: SK-MEL-2 melanoma
[19] = tested on: TK-10 renal
[20] = tested on: NCI-H226 lung
[21] = tested on: UACC-257 melanoma
[22] = tested on: SN12C renal
[23] = tested on: SF-295 CNS
[24] = tested on: HCT-116 colon
[25] = tested on: MDA-MB-231 breast
[26] = tested on: SF-268 CNS
[27] = tested on: SK-MEL-28 melanoma
[28] = tested on: OVCAR-5 ovarian
[29] = tested on: SK-MEL-5 melanoma
[30] = tested on: M14 melanoma
[31] = tested on: SNB-19 CNS
[32] = tested on: RPMI-8226 leukemia
[33] = tested on: HL-60(TB) leukemia
[34] = tested on: RXF 393 renal
[35] = tested on: K-562 leukemia
[36] = tested on: CCRF-CEM leukemia
[37] = tested on: SR leukemia
[38] = tested on: MDA-MB-435
[39] = tested on: MCF7 breast
[40] = tested on: NCI-H23 lung
[41] = tested on: NCI-H522 lung
[42] = tested on: HCT-15 colon
[43] = tested on: NCI/ADR-RES ovarian
[44] = tested on: MOLT-4 leukemia
[45] = tested on: T-47D breast
[46] = tested on: SNB-75 CNS
[47] = tested on: HT29 colon
[48] = tested on: U251 CNS
[49] = tested on: NCI-H460 lung
[50] = tested on: SK-OV-3 ovarian
[51] = tested on: BT-549 breast
[52] = tested on: PC-3 prostate
[53] = tested on: OVCAR-8 ovarian
[54] = tested on: ACHN renal
[55] = tested on: 786-0 renal
[56] = tested on: EKVX NSCLC
[57] = tested on: OVCAR-4 ovarian
[58] = tested on: HS 578T breast

CCCC(=O)NC(c1ccc2c(c1)OC(F)(F)O2)c1cc(C)c2cccnc2c1O (stereo not drawn)
GI50 [1]: 0.296 µM | TGI [1]: 33.4 µM | GI50 [2]: 1.08 µM | TGI [2]: > 26.7 µM | GI50 [3]: 0.78 µM | TGI [3]: > 100 µM | GI50 [4]: 0.793 µM | TGI [4]: > 100 µM | GI50 [5]: 0.438 µM | TGI [5]: 21.4 µM | GI50 [6]: 0.451 µM | TGI [6]: > 33.4 µM | GI50 [7]: 1.78 µM | TGI [7]: > 100 µM | GI50 [8]: 1.26 µM | TGI [8]: > 100 µM | GI50 [9]: 0.666 µM | TGI [9]: 12 µM | GI50 [10]: 0.993 µM | TGI [10]: > 100 µM | GI50 [11]: 0.592 µM | TGI [11]: > 100 µM | GI50 [12]: 0.695 µM | TGI [12]: > 100 µM | GI50 [13]: > 74.7 µM | TGI [13]: > 100 µM | GI50 [14]: 0.453 µM | GI50 [15]: 0.437 µM | TGI [15]: > 100 µM | GI50 [16]: 0.218 µM | GI50 [17]: 0.275 µM | TGI [17]: 1.97 µM | GI50 [18]: 1.28 µM | TGI [18]: > 68.7 µM | GI50 [19]: 1.99 µM | TGI [19]: > 100 µM | GI50 [20]: 0.544 µM | TGI [20]: > 22.8 µM | GI50 [21]: 1.3 µM | TGI [21]: > 28.9 µM | GI50 [22]: 0.886 µM | TGI [22]: > 100 µM | GI50 [23]: 0.691 µM | TGI [23]: > 100 µM | GI50 [24]: 0.509 µM | TGI [24]: > 100 µM | GI50 [25]: 0.565 µM | TGI [25]: > 100 µM | GI50 [26]: 0.69 µM | TGI [26]: > 100 µM | GI50 [27]: 0.637 µM | TGI [27]: > 100 µM | GI50 [28]: 1.73 µM | TGI [28]: > 100 µM | GI50 [29]: 0.714 µM | TGI [29]: 2.35 µM | GI50 [30]: 0.532 µM | TGI [30]: 3.82 µM | GI50 [31]: 0.825 µM | TGI [31]: > 100 µM | GI50 [32]: 0.727 µM | TGI [32]: > 100 µM | GI50 [33]: 0.391 µM | TGI [33]: > 100 µM | GI50 [34]: 3.17 µM | TGI [34]: > 47.3 µM | GI50 [35]: 0.367 µM | TGI [35]: > 100 µM | GI50 [36]: 0.443 µM | TGI [36]: > 100 µM | GI50 [37]: 0.436 µM | TGI [37]: > 100 µM | GI50 [38]: 1.09 µM | TGI [38]: > 100 µM | GI50 [39]: 0.419 µM | TGI [39]: > 100 µM | GI50 [40]: 0.669 µM | TGI [40]: > 100 µM | GI50 [41]: 0.326 µM | TGI [41]: > 32.3 µM | GI50 [42]: 0.353 µM | TGI [42]: > 100 µM | GI50 [43]: 0.29 µM | TGI [43]: 4.82 µM | GI50 [44]: 0.397 µM | TGI [44]: > 100 µM | GI50 [45]: 0.504 µM | TGI [45]: > 100 µM | GI50 [46]: 0.685 µM | TGI [46]: 8.43 µM | GI50 [47]: 0.492 µM | TGI [47]: > 100 µM | GI50 [48]: 0.473 µM | TGI [48]: > 84.6 µM | GI50 [49]: 0.421 µM | TGI [49]: > 100 µM | GI50 [50]: 0.51 µM | TGI [50]: > 67.5 µM | GI50 [51]: 0.918 µM | TGI [51]: > 100 µM | GI50 [52]: 0.651 µM | TGI [52]: > 100 µM | GI50 [53]: 0.406 µM | TGI [53]: > 100 µM | GI50 [54]: 0.406 µM | TGI [54]: > 36.6 µM | GI50 [55]: 0.702 µM | TGI [55]: > 34.5 µM | GI50 [56]: 0.987 µM | TGI [56]: > 100 µM | GI50 [57]: 0.446 µM | TGI [57]: > 100 µM | GI50 [58]: 2.19 µM | TGI [58]: > 100 µM

CN1CCN(c2ccc(Nc3nc(NCCCNS(=O)(=O)c4ccccc4)c4sccc4n3)cc2)CC1
GI50 [1]: 12.3 µM | TGI [1]: 58.6 µM | GI50 [2]: 13.3 µM | TGI [2]: 26.2 µM | GI50 [3]: 17.5 µM | TGI [3]: 35.6 µM | GI50 [4]: 20.4 µM | TGI [4]: 65.7 µM | GI50 [5]: 16.4 µM | TGI [5]: 30 µM | GI50 [6]: 5.9 µM | TGI [6]: 20.2 µM | GI50 [7]: 15.4 µM | TGI [7]: 28.7 µM | GI50 [8]: 15.5 µM | TGI [8]: 31.4 µM | GI50 [9]: 11.8 µM | TGI [9]: 24 µM | GI50 [10]: 19.3 µM | TGI [10]: 48.8 µM | GI50 [11]: 17 µM | TGI [11]: 33.2 µM | GI50 [12]: 12.4 µM | TGI [12]: 27.6 µM | GI50 [13]: 21.9 µM | TGI [13]: 41.3 µM | GI50 [14]: 13.3 µM | TGI [14]: 27.3 µM | GI50 [15]: 21.1 µM | TGI [15]: 55.6 µM | GI50 [16]: 12.5 µM | TGI [16]: 25.5 µM | GI50 [17]: 12.9 µM | TGI [17]: 25.7 µM | GI50 [18]: 17.5 µM | TGI [18]: 32.3 µM | GI50 [19]: 23.7 µM | TGI [19]: 48.6 µM | GI50 [20]: 13.5 µM | TGI [20]: 26.8 µM | GI50 [21]: 16.2 µM | TGI [21]: 32.8 µM | GI50 [22]: 14.8 µM | TGI [22]: 31.1 µM | GI50 [23]: 16 µM | TGI [23]: 30.2 µM | GI50 [24]: 7.46 µM | TGI [24]: > 100 µM | GI50 [25]: 12.8 µM | TGI [25]: 30 µM | GI50 [26]: 15.3 µM | TGI [26]: 63.1 µM | GI50 [27]: 13.5 µM | TGI [27]: 26.3 µM | GI50 [28]: 16.6 µM | TGI [28]: 44.4 µM | GI50 [29]: 16.6 µM | TGI [29]: 30.6 µM | GI50 [30]: 3.9 µM | TGI [30]: 14.3 µM | GI50 [31]: 25.6 µM | TGI [31]: 67.7 µM | GI50 [32]: 7.3 µM | TGI [32]: 55.4 µM | GI50 [33]: 14.9 µM | TGI [33]: 53.6 µM | GI50 [35]: 3.18 µM | TGI [35]: > 100 µM | GI50 [36]: 30.2 µM | TGI [36]: > 100 µM | GI50 [37]: 2.83 µM | TGI [37]: > 100 µM | GI50 [38]: 14.2 µM | TGI [38]: 27.2 µM | GI50 [39]: 9.12 µM | TGI [39]: 21.5 µM | GI50 [40]: 15.8 µM | TGI [40]: 31.6 µM | GI50 [41]: 14.6 µM | TGI [41]: 30.3 µM | GI50 [42]: 3.93 µM | TGI [42]: 18.8 µM | GI50 [43]: 21.2 µM | TGI [43]: 54.8 µM | GI50 [44]: 5.46 µM | TGI [44]: 46.6 µM | GI50 [45]: 18.3 µM | TGI [45]: 46.5 µM | GI50 [46]: 10.3 µM | TGI [46]: 22 µM | GI50 [47]: 5.79 µM | TGI [47]: 33.2 µM | GI50 [48]: 7.64 µM | TGI [48]: 52.4 µM | GI50 [49]: 16.4 µM | TGI [49]: 32.9 µM | GI50 [50]: 29.6 µM | TGI [50]: 81.3 µM | GI50 [51]: 17.1 µM | TGI [51]: 37.4 µM | GI50 [52]: 19.9 µM | TGI [52]: 77.4 µM | GI50 [53]: 15.5 µM | TGI [53]: 48.5 µM | GI50 [54]: 15.2 µM | TGI [54]: 28.5 µM | GI50 [55]: 17.8 µM | TGI [55]: 43.2 µM | GI50 [56]: 23.5 µM | TGI [56]: 64 µM | GI50 [57]: 13.4 µM | TGI [57]: 48.6 µM | GI50 [58]: 13.5 µM | TGI [58]: 38.5 µM
